Values of other authors in patent publication US20070032554A1, “Treatment of stuttering and other communication disorders with norepinephrine reuptake inhibitors” (ELILILLY AND COMPANY a Corporation, priority 2003, published 2007).

Conditions: for side effects / tolerability: literature reports, treatment of stuttering; for effect on stuttering: literature reports in persons who stutter

Row | Compound | side effects / tolerability | effect on stuttering
1 | Cc1cc2c(s1)Nc1ccccc1N=C2N1CCN(C)CC1 [Olanzapine] | mostly limited to slight weight gain and drowsiness | –
2 | Fc1ccc([C@@H]2CCNC[C@H]2COc2ccc3c(c2)OCO3)cc1 [Paroxetine] | a number of undesirable side effects | –
3 | CN[C@H]1CC[C@@H](c2ccc(Cl)c(Cl)c2)c2ccccc21 [Sertraline] | a number of undesirable side effects | –
4 | O=C(CCCN1CCC(O)(c2ccc(Cl)cc2)CC1)c1ccc(F)cc1 [haloperidol] | not well tolerated | reduce the symptoms of stuttering
5 | Cc1nc2n(c(=O)c1CCN1CCC(c3noc4cc(F)ccc34)CC1)CCCC2 [risperidone] | sedation was common | may be effective
